# Assay results: patent US8372971B2, “Heterocyclic compounds and methods of use” (TargeGen, Inc., priority 2004, dated 2013)
# Structures can show the parent of a compound that is named as a salt.
# Assays:
# [1] = system: p-MEK and p-ERK levels in HUVECs; experiment: Western Blot, inhibition of MAPK pathway in cellular assay (Example 105); assay type: cell-based, human; conditions: 50 ng/ml VEGF or FGF
# Description: Some compounds described by the general structure (B) were tested for inhibition of MAPK pathway in cellular assay. Western Blot: Early passage primary human umbilical vein endothelial cells (HUVECs) were maintained in EGM-2 containing SingleQuots (Cambrex, East Rutherford, N.J.), 10% FBS, 10 mM HEPES, and 50 μg/ml gentamicin. Prior to treatment of the cells with inhibitor, the HUVECs were starved for 18 h by replacing serum-containing complete media with serum-free and SingleQuot-free media. The starved cells were pre-treated with inhibitors for 60 min at various concentrations (0-20 μM). Next the HUVECs were treated with 50 ng/ml VEGF or FGF (Peprotech, Rocky Hill, N.J.) for 6 min and the cells were immediately washed with ice-cold PBS. Cells were lysed with ice-cold RIPA buffer containing 100 mM Tris pH 7.5, 150 mM NaCl, 1 mM EDTA, 1% deoxycholate, 1% Triton X-100, 0.1% SDS, 2 mM PMSF, one Complete-Mini protease inhibitor tablet (Roche, Indianapolis, Ind.; 1 tablet/7 ml of lysis buffer) and the phophatase inhibitors NaF (500 mM) and orthovanadate (1 mM). The cells were scraped and lysates transferred and centrifuged at 15,000 g for 10 main. Supernatants were transferred to new tubes and protein concentration was quantitated using the BCA protein reagent (Pierce, Rockford, Ill.). Cell lysates containing 20 μg of total protein were separated by 10% SDS-PAGE, transferred to nitrocellulose, and blocked in 5% milk in TBST. Anti phospho-ERK Thr 202/Tyr 204 (Cell Signaling, Beverly, Mass.), anti-phospho-MEK Ser217/221 (Cell Signaling), and c-Raf (BD Biosciences Pharmingen, San Diego, Calif.) used as primary antibodies were detected with horseradish peroxidase-conjugated goat anti-mouse or rabbit secondary antibodies and bands were visualized using the SuperSignal West Pico chemiluminescence reagent system (Pierce) and Kodak X-ray film (Rochester, N.Y.).
# [2] = system: HUVECs; experiment: XTT cell viability assay (Example 106); assay type: cell-based, human; conditions: Homo sapiens, HUVEC, 72 hours, read-out: Inhibition of HUVEC cell prolifiration (IC50)
# Description: Some compounds described by the general structure (B) were tested for cell viability. XTT assay: HUVECs were seeded at 10,000 cells/well of a tissue culture treated 96-well plate treated with collagen type I and grown overnight in the complete EGM-2 media as described above. The following morning, the inhibitors were serial diluted with DMSO and added to the cells with a final DMSO concentration of 1%. After 72 hours cell viability was measured with an XTT assay (Sigma, St. Louis, Mo.). The cells were also photographed to compare morphological differences to the XTT trends observed. Determination of the IC50 values was performed with quantitative software (Prism software package, GraphPad Software, San Diego Calif.).
SMILES,Western Blot ([1]; at 10 uM),IC50 [2],Western Blot ([1]; at 5 uM)
"O=C(Nc1nnc(-c2ccc(Oc3cccnc3)cc2)o1)c1ccc(Br)cc1 [4-Bromo-N-{5-[4-(pyridin-3-yloxy)phenyl]-1,3,4-oxadiazol-2-yl}-benzamide]",not active at 10 uM,> 40 µM,
"O=C(Nc1nnc(-c2ccc(Oc3cccnc3)cc2)o1)c1ccc2c(c1)OC(F)(F)O2 [2,2-Difluoro-N-{5-[4-(pyridin-3-yloxy)phenyl]-1,3,4-oxadiazol-2-yl}-1,3-benzodioxole-5-carboxamide]",not active at 10 uM,> 40 µM,
"O=C(Nc1nnc(-c2ccc(Oc3cccnc3)cc2)o1)c1cccc(C(F)(F)F)c1 [N-{5-[4-(pyridin-3-yloxy)phenyl]-1,3,4-oxadiazol-2-yl}-3-(trifluoromethyl)benzamide]",active at 10 uM,> 40 µM,
"Nc1cc(Oc2ccc(-c3nnc(Nc4cccc(Cl)c4)o3)cc2)nc(N)n1 [6-(4-{5-[(3-chlorophenyl)amino]-1,3,4-oxadiazol-2-yl}phenoxy) pyrimidine-2,4-diamine]",,~20 µM,active at 5 uM
"Clc1cccc(Nc2nnc(-c3ccc(Oc4cncnc4)cc3)o2)c1 [5-[4-(Pyrimidin-5-yloxy)phenyl]-N-[3-chloro-phenyl]-1,3,4-oxadiazol-2-amine]",,~20 µM,active at 5 uM
"Nc1cc(Oc2ccc(-c3nnc(Nc4ccc(Cl)c(C(F)(F)F)c4)[nH]3)cc2)nc(N)n1 [6-{4-[5-(4-chloro-3-trifluoromethyl-phenylamino)-4H-[1,2,4]-triazol-3-yl]-phenoxy}-pyrimidine-2,4-diamine]",,0.089 µM,active at 5 uM
"O=C(Nc1nnc(-c2ccc(Oc3cccnc3)cc2)o1)c1ccc(OC(F)(F)F)cc1 [N-{5-[4-(pyridine-3-yloxy)phenyl]-1,3,4-oxadiazol-2-yl}-4-(trifluoromethoxy)benzamide]",not active at 10 uM,> 40 µM,
"CNC(=O)c1cc(Oc2ccc(-c3nnc(Nc4ccc(Cl)c(C(F)(F)F)c4)[nH]3)cc2)ccn1 [4-{4-[5-(4-chloro-3-trifluoromethyl-phenylamino)-4H-[1,2,4]triazol-3-yl]-phenoxy}-pyridine-2-carboxylic acid methylamide trifluoroacetic acid salt]",active at 10 uM,2.85 µM,
"Br.Nc1nnc(-c2ccc(Oc3cccnc3)cc2)o1 [5-[4-(Pyridin-3-yloxy)phenyl]-1,3,4-oxadiazol-2-amine hydrobromide salt]",not active at 10 uM,> 40 µM,
"Clc1ccc(Nc2nnc(-c3ccc(Oc4cccnc4)cc3)o2)cc1 [5-[4-(Pyridin-3-yloxy)phenyl]-N-[4-chloro-phenyl]-1,3,4-oxadiazol-2-amine]",active at 10 uM,9.6 µM,
"FC(F)(F)c1cccc(Nc2nnc(-c3ccc(Oc4cccnc4)cc3)o2)c1 [5-[4-(Pyridin-3-yloxy)phenyl]-N-[3-trifluoromethyl-phenyl]-1,3,4-oxadiazol-2-amine]",active at 10 uM,> 20 µM,
"O=C(Nc1nnc(-c2ccc(Oc3cccnc3)cc2)o1)c1ccccc1OC(F)(F)F [N-{5-[4-(pyridin-3-yloxy)phenyl]-1,3,4-oxadiazol-2-yl}-2-(trifluoromethoxy)-benzamide]",not active at 10 uM,~20 µM,
"Nc1cc(Oc2cccc(-c3nnc(Nc4ccc(Cl)c(C(F)(F)F)c4)[nH]3)c2)nc(N)n1 [6-{3-[5-(4-chloro-3-trifluoromethyl-phenylamino)-4H-[1,2,4]triazol-3-yl]-phenoxy}-pyrimidine-2,4-diamine trifluoroacetic acid salt]",,0.404 µM,active at 5 uM
"Nc1ccc(Oc2ccc(Nc3nnc(-c4ccc(Cl)c(C(F)(F)F)c4)[nH]3)cc2)nn1 [6-[4-({5-[4-chloro-3-(trifluoromethyl)phenyl]-4H-1,2,4-triazol-3-yl}amino)phenoxy]pyridazin-3-amine trifluoroacetate salt]",,> 40 µM,active at 5 uM
"Nc1cc(Oc2ccc(-c3nnc(Nc4cccc(C(F)(F)F)c4)o3)cc2)nc(N)n1 [6-[4-(5-{[3-(trifluoromethyl)phenyl]amino}-1,3,4-oxadiazol-2-yl)phenoxy}pyrimidine-2,4-diamine]",,> 10 µM,active at 5 uM
"CNC(=O)c1cc(Oc2ccc(-c3nnc(Nc4ccc(Cl)c(C(F)(F)F)c4)o3)cc2)ccn1 [4-[4-(5-{[4-chloro-3-(trifluoromethyl)phenyl]amino}-1,3,4-oxadiazol-2-yl)phenoxy]-N-methylpyridine-2-carboxamide trifluoroacetate salt]",,5.6 µM,active at 5 uM
"Nc1cc(Oc2ccc(-c3nnc(Nc4ccc(Cl)c(C(F)(F)F)c4)o3)cc2)nc(N)n1 [6-[4-(5-{[4-Chloro-3-trifluoromethyl-phenyl]amino}-1,3,4-oxadiazol-2-yl)-phenoxy]-pyrimidine-2,4-diamine]",,1.57 µM,active at 5 uM
"FC(F)(F)c1cc(Nc2nnc(-c3ccc(Oc4ccncc4)cc3)o2)ccc1Cl [N-[4-chloro-3-(trifluoromethyl)phenyl]-5-[4-(pyridin-4-yloxy)phenyl]-1,3,4-oxadiazol-2-amine trifluoroacetate salt]",,8.6 µM,active at 5 uM
"FC(F)(F)c1cc(Nc2nnc(-c3ccc(Oc4cncnc4)cc3)o2)ccc1Cl [N-[4-chloro-3-(trifluoromethyl)phenyl]-5-[4-(pyrimidin-5-yloxy)phenyl]-1,3,4-oxadiazol-2-amine trifluoroacetate salt]",,9.65 µM,active at 5 uM
"COc1ccc(C(=O)Nc2nnc(-c3ccc(Oc4cccnc4)cc3)o2)cc1C(F)(F)F [4-methoxy-N-{5-[4-(pyridin-3-yloxy)phenyl]-1,3,4-oxadiazol-2-yl}-3-(trifluoromethyl)-benzamide]",active at 10 uM,> 40 µM,
"FC(F)(F)c1cc(Nc2nnc(-c3ccc(Oc4cccnc4)cc3)[nH]2)ccc1Cl [(4-chloro-3-trifluoromethyl-phenyl)-{5-[4-(pyridin-3-yloxy)-phenyl]-4H-[1,2,4]triazol-3-yl}-amine]",,1.81 µM,active at 5 uM
"O=C(Nc1nnc(-c2ccc(Oc3cccnc3)cc2)o1)c1ccc(F)c(C(F)(F)F)c1 [4-Fluoro-N-{5-[4-(pyridin-3-yloxy)phenyl]-1,3,4-oxadiazol-2-yl}-3-(trifluoromethyl)-benzamide]",active at 10 uM,~20 µM,
"O=C(Nc1nnc(-c2ccc(Oc3cccnc3)cc2)o1)c1cccc(OC(F)(F)F)c1 [N-{5-[4-(pyridin-3-yloxy)phenyl]-1,3,4-oxadiazol-2-yl}-3-(trifluoromethoxy)-benzamide]",not active at 10 uM,> 40 µM,
"FC(F)(F)c1cccc(Nc2nnc(-c3ccc(Oc4cncnc4)cc3)o2)c1 [5-[4-(Pyrimidin-5-yloxy)phenyl]-N-[3-(trifluoromethyl)phenyl]-1,3,4-oxadiazol-2-amine]",,> 10 µM,active at 5 uM
"Nc1cc(Oc2ccc(Nc3nnc(-c4ccc(Cl)c(C(F)(F)F)c4)[nH]3)cc2)nc(N)n1 [6-[4-({5-[4-chloro-3-(trifluoromethyl)phenyl-4H-1,2,4-triazol-3-yl}amino)phenoxy]pyrimidine-2,4-diamine trifluoroacetate salt]",,9.57 µM,active at 5 uM
"FC(F)(F)c1cc(-c2nnc(Nc3ccc(Oc4cccnc4)cc3)[nH]2)ccc1Cl [5-[4-chloro-3-(trifluoromethyl)phenyl]-N-[4-(pyridine-3-yloxy)phenyl]-4H-1,2,4-triazol-3-amine trifluoroacetate salt]",,> 40 µM,active at 5 uM
"FC(F)(F)c1cc(-c2nnc(Nc3ccc(Oc4cncnc4)cc3)[nH]2)ccc1Cl [5-[4-chloro-3-(trifluoromethyl)phenyl]-N-[4-(pyrimidin-5-yloxy)phenyl]-4H-1,2,4-triazol-3-anine trifluoroacetate salt]",,> 10 µM,active at 5 uM
